The target in one assay is T1, human PDE5 (Homo sapiens, UniProt O76074).
T1 construct: from tissue; host or cells: human platelets from fresh donor blood (10,000 g supernatant of sonicated platelets)
Kind of assay: Inhibition of PDE5 activity (SPA, [3H]cGMP, platelet lysate). It is filed as biochemical. The following applies: PDE5 from human platelet lysate; values given as bins; read-out: PDE5A inhibitory values measured as −logIC50 (converted). As to the method:
As a source for human PDE5, platelets are used. For that purpose, 150 ml fresh blood from human donors anticoagulated with citrate [final concentration 0.3% (w/v)] is centrifuged at 200 g for 10 min to obtain the so-called platelet-rich-plasma (PRP) as a supernatant. 1/10 volume of ACD solution (85 mM Na3-citrate, 111 mM D-glucose, 71 mM citric acid, pH 4.4) is added to 9/10 volume of PRP. After centrifugation (1,400 g, 10 min) the cell pellet is resuspended in 3 ml homogenization buffer (NaCl 140 mM, KCl 3.8 mM, EGTA (ethylene glycol tetraacetic acid) 1 mM, MgCl2 1 mM, Tris-HCl 20 mM, beta-mercaptoethanol 1 mM, pH 8.2) plus protease-inhibitor mix giving rise to the final concentrations of 0.5 mM Pefablock (Roche), 10 μM Leupeptin, 5 μM Trypsininhibitor, 2 mM Benzamidin and 10 μM Pepstatin A. The suspension is sonified and thereafter centrifuged for 15 min at 10,000 g. The resulting supernatant (platelet lysate) is used for enzymatic testings.
PDE5 activities were measured in a 96-well platform using SPA (scintillation proximity assay) yttrium silicate beads (RPNQ1050 from GE Healthcare). In a first step the PDE activity operates hydrolysis of either [^3H] cGMP (substrate) into [^3H] 5′GMP. In a second step substrate and product are distinguished following addition of SPA yttrium silicate beads. Indeed, in the presence of zinc sulphate the linear [^3H] […] Close proximity of bound [^3H] […] The test volume is 100 pl and contains 20 mM Tris buffer (pH 7.4), 0.1 mg of BSA (bovine serum albumin)/ml, 5 mM Mg^2+, 1 μM motapizone (PDE3 Inhibitor), 10 nM PDE2 inhibitor 2-(3,4-dimethoxybenzyl)-7-[(1R,2R)-2-hydroxy-1-(2-phenylethyl)propyl]-5-methylimidazo[5,1-f][1,2,4]triazin-4(3H)-one, […] (cyclic guanosine monophosphate) (including about 50,000 cpm of [3H]cGMP as a tracer), 1 pl of the respective compound dilution in dimethylsulfoxide (DMSO) and sufficient PDE5-containing platelet lysat (10,000, g supernatant, see above) to ensure that 10-20 wt % of the cGMP is converted under the said experimental conditions. […] After a preincubation of 5 min at 37° C., the reaction is started by adding the substrate (cGMP) and the assay is incubated for a further 15 min; after that, it is stopped by adding SPA beads (50 pl). In accordance with the manufacturer's instructions, the SPA beads had previously been resuspended in water, but are then diluted 1:3 (v/v) in water; the diluted solution also contains 3 mM […]3-isobutyl-1-methylxanthine (IBMX) to ensure a complete PDE activity stop. After the beads have been sedimented (>30 min), the MTP's are analyzed in commercially available luminescence detection devices. The corresponding IC50 values of the compounds for the inhibition of PDE activity are determined from the concentration-effect curves by means of non-linear regression.

The target in the next assay is T2, PDE4B1 (Homo sapiens, UniProt Q07343).
T2 construct: made in house; host or cells: SF21 insect cells (baculovirus; pCR-Bac vector)
T2 sequence (Q07343 whole entry): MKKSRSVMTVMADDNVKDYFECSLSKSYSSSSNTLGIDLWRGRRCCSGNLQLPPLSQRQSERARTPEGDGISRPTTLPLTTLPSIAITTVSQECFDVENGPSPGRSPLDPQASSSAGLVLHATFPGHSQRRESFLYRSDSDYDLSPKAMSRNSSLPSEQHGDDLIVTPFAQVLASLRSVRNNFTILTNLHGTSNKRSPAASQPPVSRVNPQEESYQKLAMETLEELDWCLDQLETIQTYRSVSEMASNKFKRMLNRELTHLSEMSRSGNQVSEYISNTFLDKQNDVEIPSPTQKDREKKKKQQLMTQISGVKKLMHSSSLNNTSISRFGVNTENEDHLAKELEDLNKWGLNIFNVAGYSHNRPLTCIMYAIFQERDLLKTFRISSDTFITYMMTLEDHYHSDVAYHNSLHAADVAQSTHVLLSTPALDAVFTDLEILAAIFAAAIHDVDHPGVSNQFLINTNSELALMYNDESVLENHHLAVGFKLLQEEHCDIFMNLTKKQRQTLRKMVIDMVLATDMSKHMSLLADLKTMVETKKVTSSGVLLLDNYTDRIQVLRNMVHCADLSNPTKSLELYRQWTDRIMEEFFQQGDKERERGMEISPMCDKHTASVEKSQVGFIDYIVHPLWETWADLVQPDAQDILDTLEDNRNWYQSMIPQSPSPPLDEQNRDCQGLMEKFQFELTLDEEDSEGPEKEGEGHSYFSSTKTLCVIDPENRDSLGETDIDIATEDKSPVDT
Kind of assay: Inhibition of PDE4B1 activity (SPA, [3H]cAMP). It is filed as biochemical. The following applies: recombinant PDE4B1 expressed in SF21 cells; 0.5 pM [sic] cAMP; values given as bins; read-out: PDE4B1 inhibitory values measured as −logIC50 (converted). Here is the method: The PDE4B1 (GB no. L20966) was a gift of Prof. M. Conti (Stanford University, USA). It was amplified from the original plasmid (pCMV5) via PCR with primers Rb18 (5′-[…]-3′) and Rb10 (5′-[…]-3′) and cloned into the pCR-Bac vector (Invitrogen, Groningen, NL).
The recombinant baculovirus was prepared by means of homologous recombination in SF9 insect cells. The expression plasmids were cotransfected with Baculo-Gold DNA (Pharmingen, Hamburg) using a standard protocol (Pharmingen, Hamburg). Wt virus-free recombinant virus supernatants were selected using plaque assay methods. After that, high-titre virus supernatants were prepared by amplifying 3 times. PDE4B1 was expressed in SF21 cells by infecting 2×10^6 cells/ml with an MOI (multiplicity of infection) between 1 and 10 in the serum-free medium Insect Express Sf9-S2 (PAA, Pasching, Austria). The cells were cultured at 28° C. for 48-72 hours, after which they were pelleted for 5-10 min at 1000×g and 4° C.
The SF21 insect cells were resuspended, at a concentration of approx. 10^7 cells/ml, in ice-cold (4° C.) homogenization buffer (20 mM Tris, pH 8.2, containing the following additions: 140 mM NaCl, 3.8 mM KCl, 1 mM EGTA, 1 mM MgCl2, 10 mM e-mercaptoethanol, 2 mM benzamidine, 0.4 mM Pefablock, 10 pM leupeptin, 10 pM pepstatin A, 5 pM trypsin inhibitor) and disrupted by ultrasonication. The homogenate was then centrifuged for 10 min at 1000, g and the supernatant was stored at −80° C. until subsequent use (see below). The protein content was determined by the Bradford method (BioRad, Munich) using BSA as the standard.
PDEB1 activities were measured in a 96-well platform using SPA (scintillation proximity assay) yttrium silicate beads (RPNQ1050 from GE Healthcare). In a first step the PDE activity operates hydrolysis of either [^3H] cAMP (substrate) into [^3H] 5′AMP. In a second step substrate and product are distinguished following addition of SPA yttrium silicate beads. Indeed, in the presence of zinc sulphate the linear [^3H] […] Close proximity of bound [^3H] […] The test volume is 100 pl and contains 20 mM Tris buffer (pH 7.4), 0.1 mg/ml of BSA, 5 mM Mg^2+, […] (including about 50,000 cpm of [3H]cAMP), 1 pl of the respective substance dilution in DMSO and sufficient recombinant PDE (1000, g supernatant, see above) to ensure that 10-20% of the cAMP is converted under the said experimental conditions. […] After a preincubation of 5 min at 37° C., the reaction is started by adding the substrate (cAMP) and the assays are incubated for a further 15 min; after that, they are stopped by adding SPA beads (50 pl). In accordance with the manufacturer's instructions, the SPA beads had previously been resuspended in water, but were then diluted 1:3 (v/v) in water; the diluted solution also contains 3 mM IBMX to ensure a complete PDE activity stop. After the beads have been sedimented (>30 min), the MTP's are analyzed in commercially available luminescence detection devices. The corresponding IC50 values of the compounds for the inhibition of PDE4B1 activity are determined from the concentration-effect curves by means of non-linear regression.

Consider `CCOc1cc2c(cc1OC)C(c1ccc(C(=O)N3CCC(n4c(=O)c5sc(-c6ccccc6)cc5n(Cc5nc(CC)ns5)c4=O)CC3)cc1)=N[C@@H]1CCSC[C@H]21` [Example 22, 3-[1-({4-[(4aR,10bR)-9-ethoxy-8-methoxy-3,4,4a,10b-tetrahydro-1H-thiopyrano[4,3-c]isoquinolin-6-yl]phenyl}carbonyl)piperidin-4-yl]-1-[(3-ethyl-1,2,4-thiadiazol-5-yl)methyl]-6-phenylthieno[3,2-d]pyrimidine-2,4(1H,3H)-dione], for which the IC50 is 10 to 100 nM at human PDE5 and 1 to 10 nM at PDE4B1.
For the compound `CCCOCc1noc(Cn2c(=O)n(C3CCN(C(=O)c4ccc(C5=N[C@@H]6CCSC[C@@H]6c6cc(OCC)c(OC)cc65)cc4)CC3)c(=O)c3sc(-c4ccccc4)cc32)n1` [Example 51, 3-[1-({4-[(4aR,10bR)-9-ethoxy-8-methoxy-3,4,4a,10b-tetrahydro-1H-thiopyrano[4,3-c]isoquinolin-6-yl]phenyl}carbonyl)piperidin-4-yl]-6-phenyl-1-{[3-(propoxymethyl)-1,2,4-oxadiazol-5-yl]methyl}thieno[3,2-d]pyrimidine-2,4(1H,3H)-dione], the IC50 at human PDE5 is above 100 nM; at PDE4B1, below 1 nM.
With `CCOc1cc2c(cc1OC)C(c1ccc(C(=O)N3CCC(n4c(=O)c5sc(-c6ccccc6)cc5n(Cc5ncc(C)s5)c4=O)CC3)cc1)=N[C@@H]1CCSC[C@H]21` [Example 12, 3-[1-({4-[(4aR,10bR)-9-ethoxy-8-methoxy-3,4,4a,10b-tetrahydro-1H-thiopyrano[4,3-c]isoquinolin-6-yl]phenyl}carbonyl)piperidin-4-yl]-1-[(5-methyl-1,3-thiazol-2-yl)methyl]-6-phenylthieno[3,2-d]pyrimidine-2,4(1H,3H)-dione], the values for the IC50 at human PDE5 and on PDE4B1 were 10 to 100 nM and 1 to 10 nM, respectively.
For `CCOc1cc2c(cc1OC)C(c1ccc(C(=O)N3CCC(n4c(=O)c5sc(-c6ccccc6)cc5n(Cc5nc(CC)co5)c4=O)CC3)cc1)=N[C@@H]1CCSC[C@H]21` [Example 5, 3-[1-({4-[(4aR,10bR)-9-ethoxy-8-methoxy-3,4,4a,10b-tetrahydro-1H-thiopyrano[4,3-c]isoquinolin-6-yl]phenyl}carbonyl)piperidin-4-yl]-1-[(4-ethyl-1,3-oxazol-2-yl)methyl]-6-phenylthieno[3,2-d]pyrimidine-2,4(1H,3H)-dione], the figures for the IC50 on human PDE5 and at PDE4B1 were 10 to 100 nM and 1 to 10 nM, respectively.
`CCOc1cc2c(cc1OC)C(c1ccc(C(=O)N3CCC(n4c(=O)c5sc(-c6ccc(F)cc6OC)cc5n(Cc5nc(COC)no5)c4=O)CC3)cc1)=N[C@@H]1CCSC[C@H]21` [Example 44, 3-[1-({4-[(4aR,10bR)-9-ethoxy-8-methoxy-3,4,4a,10b-tetrahydro-1H-thiopyrano[4,3-c]isoquinolin-6-yl]phenyl}carbonyl)piperidin-4-yl]-6-(4-fluoro-2-methoxyphenyl)-1-{[3-(methoxymethyl)-1,2,4-oxadiazol-5-yl]methyl}thieno[3,2-d]pyrimidine-2,4(1H,3H)-dione]: the results for the IC50 on human PDE5 and on PDE4B1 were below 10 nM and 1 to 10 nM, respectively.
Take `CCn1nnc(Cn2c(=O)n(C3CCN(C(=O)c4ccc(C5=N[C@@H]6CCSC[C@@H]6c6cc(OC)c(OC)cc65)cc4)CC3)c(=O)c3sc(-c4ccccc4)cc32)n1` [Example 59, 3-[1-({4-[(4aR,10bR)-8,9-dimethoxy-3,4,4a,10b-tetrahydro-1H-thiopyrano[4,3-c]isoquinolin-6-yl]phenyl}carbonyl)piperidin-4-yl]-1-[(2-ethyl-2H-tetrazol-5-yl)methyl]-6-phenylthieno[3,2-d]pyrimidine-2,4(1H,3H)-dione]: the IC50 on human PDE5 was below 10 nM; on PDE4B1, above 10 nM.
For `CCOc1cc2c(cc1OC)C(c1ccc(C(=O)N3CCC(n4c(=O)c5sc(-c6ccccc6)cc5n(Cc5nnn(CC)n5)c4=O)CC3)cc1)=N[C@@H]1CCSC[C@H]21` [Example 14, 3-[1-({4-[(4aR,10bR)-9-ethoxy-8-methoxy-3,4,4a,10b-tetrahydro-1H-thiopyrano[4,3-c]isoquinolin-6-yl]phenyl}carbonyl)piperidin-4-yl]-1-[(2-ethyl-2H-tetrazol-5-yl)methyl]-6-phenylthieno[3,2-d]pyrimidine-2,4(1H,3H)-dione], in that order: below 10 nM and above 10 nM.
The corresponding values for `CCOc1cc2c(cc1OC)C(c1ccc(C(=O)N3CCC(n4c(=O)c5sc(-c6ccccc6)cc5n(Cc5ccc(CC)s5)c4=O)CC3)cc1)=N[C@@H]1CCSC[C@H]21` [Example 55, 3-[1-({4-[(4aR,10bR)-9-ethoxy-8-methoxy-3,4,4a,10b-tetrahydro-1H-thiopyrano[4,3-c]isoquinolin-6-yl]phenyl}carbonyl)piperidin-4-yl]-1-[(5-ethylthiophen-2-yl)methyl]-6-phenylthieno[3,2-d]pyrimidine-2,4(1H,3H)-dione] are 10 to 100 nM and 1 to 10 nM.
For the compound `CCOc1cc2c(cc1OC)C(c1cccc(C(=O)N3CCC(n4c(=O)c5sc(-c6ccc(F)cc6OC)cc5n(Cc5nc(COC)no5)c4=O)CC3)c1)=N[C@@H]1CCSC[C@H]21` [Example 45, 3-[1-({3-[(4aR,10bR)-9-ethoxy-8-methoxy-3,4,4a,10b-tetrahydro-1H-thiopyrano[4,3-c]isoquinolin-6-yl]phenyl}carbonyl)piperidin-4-yl]-6-(4-fluoro-2-methoxyphenyl)-1-{[3-(methoxymethyl)-1,2,4-oxadiazol-5-yl]methyl}thieno[3,2-d]pyrimidine-2,4(1H,3H)-dione], the IC50 at human PDE5 was below 10 nM; on PDE4B1, 1 to 10 nM.
